# In the Kinase Knowledgebase extract (Sharma et al. 2016):
# What was measured:
# [1] = molecular target: CDK2 (UniProt P24941); assay: Enzyme Assay
# [2] = molecular target: MAPK14 (UniProt Q16539); assay: Inhibition of MAPK14 Kinase Activity
# Sequence of MAPK14 (Q16539 whole entry, looked up): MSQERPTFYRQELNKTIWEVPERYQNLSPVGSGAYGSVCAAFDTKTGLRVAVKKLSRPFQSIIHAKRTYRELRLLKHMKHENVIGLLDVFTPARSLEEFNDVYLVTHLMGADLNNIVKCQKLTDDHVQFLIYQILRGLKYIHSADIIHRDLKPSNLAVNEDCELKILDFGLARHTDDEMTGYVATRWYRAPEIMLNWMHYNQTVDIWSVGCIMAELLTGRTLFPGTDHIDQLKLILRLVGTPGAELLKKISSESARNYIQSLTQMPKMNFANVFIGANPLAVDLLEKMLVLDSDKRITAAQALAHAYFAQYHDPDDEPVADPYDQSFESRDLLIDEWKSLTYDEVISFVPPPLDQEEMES
IC50 [1],IC50 [2],Compound
< 1000 nM,–,C=Cc1cnc2c(c1)C(=Cc1cc(Br)c(O)c(Br)c1)C(=O)N2
< 1000 nM,–,O=C1Nc2ncc(Br)cc2C1=Cc1cc([N+](=O)[O-])c(O)c([N+](=O)[O-])c1
< 1000 nM,–,NS(=O)(=O)c1ccc(-c2ccc(C=C3C(=O)Nc4ncc(-c5ccsc5)cc43)o2)cc1
–,1000 to 10000 nM,NC(=O)c1cncc(-c2cnc3c(c2)C(=Cc2cc(Br)c(O)c(Br)c2)C(=O)N3)c1
–,< 1000 nM,O=C1Nc2nc(Cl)ccc2C1=Cc1cc(Br)c(O)c(Br)c1
< 1000 nM,< 1000 nM,CCc1cnc2c(c1)C(=Cc1cc(Br)c(O)c(Br)c1)C(=O)N2
< 1000 nM,< 1000 nM,O=C1Nc2ncc(Br)cc2C1=Cc1cc(Br)c(O)c(Br)c1
–,< 1000 nM,COc1ccccc1-c1cc(C=C2C(=O)Nc3ncc(Br)cc32)cc(Br)c1O
